Experimental findings from EP4137133A1, “CRYSTALLINE FORM OF AVACOPAN” (Sandoz AG, priority 2021, dated 2023) are described below.

Series [1] can be described thus: Powder dissolution of crystalline avacopan forms in 0.1N HCl. Format: physicochemical. The settings on record: 37°C; for Concentration: HPLC 243 nm. On the procedure:
Powder dissolution experiments were carried out in 0.1N HCl at 37°C for the crystalline form of avacopan disclosed in WO 2021/092292 A1 and the crystalline Form HyA of avacopan of the present invention. Particle sizes of the forms were kept as similar as possible to allow for proper comparison. The respective concentrations were determined by HPLC at a wavelength of 243 nm.

Series [2] can be described thus: Gravimetric moisture sorption (GMS). Format: physicochemical. The note with it: 25 ± 0.1 °C. How it is done:
Moisture sorption isotherms were recorded with an SPSx-1µ moisture sorption analyzer (ProUmid, Ulm) together with other samples. The measurement cycle was started at ambient relative humidity (RH) of 40%. RH was then decreased to 5% in 5% steps, followed by a further decrease to 3% and to 0%. […] Finally, RH was increased to ambient relative humidity of […] in 5% steps. The time per step was set to a minimum of 2 hours and a maximum of 6 hours. If an equilibrium condition with a constant mass of ± 0.01% within 1 hour was reached before the maximum time for all examined samples the sequential humidity step was applied before the maximum time of 6 hours. If no equilibrium was achieved the consecutive humidity step was applied after the maximum time of 6 hours. The temperature was 25 ± 0.1 °C.

As for `Cc1ccc(NC(=O)[C@H]2CCCN(C(=O)c3c(C)cccc3F)[C@H]2c2ccc(NC3CCCC3)cc2)cc1C(F)(F)F` [Crystalline Form of WO 2021/092292 A1, (2R,3S)-2-(4-(cyclopentylamino)phenyl)-1-(2-fluoro-6-methylbenzoyl)-N-(4-methyl-3-(trifluoromethyl)phenyl)piperidine-3-carboxamide, reference compound], the “Concentration” value in series [1] (time 0.25 h) worked out at 4000 ng/mL; in series [1] (time 0.5 h), 6000 ng/mL; in series [1] (time 0.75 h), 6000 ng/mL; in series [1] (time 1 h), 7000 ng/mL; in series [1] (time 1.25 h), 7000 ng/mL; in series [1] (time 1.5 h), 8000 ng/mL. Also, the “Concentration” value in series [1] (time 1.75 h) and in series [1] (time 2 h) was 8000 ng/mL each time.

As for `Cc1ccc(NC(=O)[C@H]2CCCN(C(=O)c3c(C)cccc3F)[C@H]2c2ccc(NC3CCCC3)cc2)cc1C(F)(F)F` [Form HyA, (2R,3S)-2-(4-(cyclopentylamino)phenyl)-1-(2-fluoro-6-methylbenzoyl)-N-(4-methyl-3-(trifluoromethyl)phenyl)piperidine-3-carboxamide], the “Concentration” value in series [1] (time 0 h) came to 0 ng/mL; in series [1] (time 0.25 h, listed as Form HyA of present invention), 72000 ng/mL; in series [1] (time 0.5 h, listed as Form HyA of present invention), 68000 ng/mL; in series [1] (time 0.75 h, listed as Form HyA of present invention), 60000 ng/mL; in series [1] (time 1 h, listed as Form HyA of present invention), 52000 ng/mL; in series [1] (time 1.25 h, listed as Form HyA of present invention), 43000 ng/mL. Also, the “Concentration” value stood at 40000 ng/mL in series [1] (time 1.5 h, listed as Form HyA of present invention); 36000 ng/mL in series [1] (time 1.75 h, listed as Form HyA of present invention); 35000 ng/mL in series [1] (time 2 h, listed as Form HyA of present invention). The “solubility in 0.1N HCl compared to the crystalline form of avacopan disclosed in WO 2021/092292 A1” value in series [1] (whole range from 15 minutes to 2 hours) is on record as “significantly increased solubility”. In series [2] (GMS, 0-15% RH), the “mass change (0-15% RH)” value is recorded as 2.2 w-%. Besides, in series [2] (GMS, 0-90% RH), the “mass change (0-90%RH)” value worked out at 3.2 w-%. Besides, the “mass change (15-90%)” value in series [2] (GMS, 15-90% RH) worked out at 1.0 w-%. Also, the hygroscopicity entry in series [2] (GMS, range of 15-90% RH) was “slightly hygroscopic”. The same compound showed a mass change in series [2] (GMS, range of 15-90% RH) of 1.0%. The water released in series [2] (GMS, very dry conditions, below 15-0% RH) worked out at 2.2%. Also, the “PXRD after the GMS experiment (physical stability)” value in series [2] (after sorption/desorption cycles 0-90% RH) is reported as “still shows the same PXRD”.
